Reference: paper PMC7375528, “Piperidine scaffold as the novel P2-ligands in cyclopropyl-containing HIV-1 protease inhibitors: Structure-based design, synthesis, biological evaluation and docking study” (PLoS ONE, 2020)

How the values were obtained:
[1] = molecular target: T1, wild-type HIV-1 PR (Human immunodeficiency virus type 1 group M subtype B, UniProt P04585); test: In vitro HIV-1 PR activity assay (FRET); type: biochemical
T1 construct: HIV-1 protease was cloned and heterologously expressed in Escherichia coli and purified; made in house; host or cells: Escherichia coli
Description: (§1) The inhibitory effect of all new designed inhibitors were measured using fluorescence resonance energy transfer (FRET) method. […] The energy transfer donor (EDANS) and acceptor (DABCYL) dyes are labeled at two ends of the peptide to perform FRET. Excitation and emission wavelengths were set at 340 nm and 490 nm. Inhibitors were dissolved in dimethylsulfoxide (DMSO) and diluted to appropriate concentrations. HIV-1 protease was cloned and heterologously expressed in Escherichia coli and purified. The experiment was carried out in 96-well plates. The FRET assay reaction buffer contained 0.1 M sodium acetate, 1 M sodium chloride, 1 mM ethylenediaminetetraacetic acid (EDTA), 1 mM dithiothreitol (DTT), 2% DMSO and 1 mg/mL bovine serum albumin (BSA) with an adjusted pH 4.7. Protease and inhibitor were mixed and incubated for 20–30 mins at room temperature and then the substrate was added. Each reaction was recorded for about 10 mins. From plots of concentration versus the calculated percent inhibition, IC50 values were determined.
as §1, with “20-30” for “20–30”, “mins.” for “mins. From plots of concentration versus the calculated percent inhibition, IC50 values were determined.”

[2] = system: wild-type HIV-1 variants; test: HIV-1 infectivity assay, wild-type; type: cell-based; conditions: Human immunodeficiency virus 1, read-out: inhibition against wild-type HIV-1 variants
Description: (§2) . Inhibitors dissolved in dimethylsulfoxide (DMSO) and diluted to appropriate concentrations, were added into culture medium at 5 hours of post-transfection. After incubating for 48 hours at temperature 37 °C, pseudotyped viruses in 10 μL of supernatant were used to infect SupT1 cells for 48 hours, followed by measuring luciferase activity of newly infected cells using Centro LB960 (Berthold).
For the assay using wild type HIV-1, 1×10^6 SupT1 cells were infected with 100 μL HIV-1 NL4-3 in the presence of 100 nM chemicals and 10 μg/mL polybrene, keeping a total volume of 500 μL (Spin infection at 1800rpm, 45min). Cells were washed once in the next morning and medium were replaced with fresh medium containing 100 nM chemicals. At 48 hpi, viruses were harvested and 50 μL of viruses were used to infect TZM-bl cells, followed by measuring luciferase activity in the infected cells.
(§3) Fig 6 Inhibition of inhibitors against wild-type and DRV-resistant HIV-1 variants.

[3] = system: DRV-resistant HIV-1 variants; test: HIV-1 infectivity assay, DRV-resistant; type: cell-based; conditions: Human immunodeficiency virus 1, read-out: inhibition against DRV-resistant HIV-1 variants
Description: as §2, §3

[4] = Cytotoxicity assay (cell counting kit-8); type: cell-based; conditions: human; 293T cells, CCK-8, 24h exposure
Description: Selected inhibitors were further evaluated in cytotoxicity assay using a cell counting kit-8 assay. […] After 24h of culture, 1μL of drugs were added to each well. After another 24h of culture, 10 μL of CCK-8 was added to each well. Absorbance was quantified at wavelength 450 nm using an EnVision multilabel reader (PerkinElmer) after 2h at room temperature.

[5] = system: HIV-1 protease; design: method as in PMID 32057582; conditions: previously reported PIs; cited from earlier work

## COc1ccc(S(=O)(=O)N(C[C@@H](O)[C@H](Cc2ccccc2)NC(=O)[C@@H]2CCCNC2)C2CC2)cc1 [22a, (R)-N-((2S,3R)-4-((N-cyclopropyl-4-methoxyphenyl)sulfonamido)-3-hydroxy-1-phenylbutan-2-yl)piperidine-3-carboxamide]
[1]
  IC50: 3.61 nM
[1]; ratio of IC50 values, (R)- vs (S)-configuration
  improvement of potency over 23a: 120 fold
[2]
  inhibition at 10 µM: 42%
[3]
  inhibition at 10 µM: 26%
[4]
  CC50 at 24 h: > 100000 nM
other
  melting point: 162.8 to 164.3 °C

## COc1ccc(S(=O)(=O)N(C[C@@H](O)[C@H](Cc2ccccc2)NC(=O)OCCN2CCOCC2)C2CC2)cc1 [A]
[5]
  IC50: 53 nM

## COc1ccc(S(=O)(=O)N(C[C@@H](O)[C@H](Cc2ccccc2)NC(=O)[C@@H]2CCCN(C)C2)C2CC2)cc1 [24a, (R)-N-((2S,3R)-4-((N-cyclopropyl-4-methoxyphenyl)sulfonamido)-3-hydroxy-1-phenylbutan-2-yl)-1-methylpiperidine-3-carboxamide]
[1]
  IC50: 8.07 ± 3.59 nM
[2]
  inhibition at 10 µM: 16%
[3]
  inhibition at 10 µM: 8%
[4]
  CC50 at 24 h: > 100000 nM
other
  melting point: 86.4 to 88.2 °C

## CN1CCC[C@@H](C(=O)N[C@@H](Cc2ccccc2)[C@H](O)CN(C2CC2)S(=O)(=O)c2ccc(C(F)(F)F)cc2)C1 [24b, (R)-N-((2S,3R)-4-((N-cyclopropyl-4-(trifluoromethyl)phenyl)sulfonamido)-3-hydroxy-1-phenylbutan-2-yl)-1-methylpiperidine-3-carboxamide]
[1]
  IC50: 9.28 ± 5.66 nM
[2]
  inhibition at 10 µM: 12%
[3]
  inhibition at 10 µM: 7%
[4]
  CC50 at 24 h: > 100000 nM
other
  melting point: 82.9 to 84.7 °C

## O=C(N[C@@H](Cc1ccccc1)[C@H](O)CN(C1CC1)S(=O)(=O)c1ccc(C(F)(F)F)cc1)N1CCOCC1 [B]
[5]
  IC50: 47 nM
